Experimental data from patent publication US6517742B1, “Sunscreen agents, photoprotective cosmetic compositions containing them and uses thereof” (L'Oreal, priority 1996, dated 2003).

Experiment: UV absorption spectrum in ethanol (λmax, εmax)
Type: physicochemical
Set-up: UV εmax: unit not given beside the values
Conditions: for UV εmax: at λmax

Molecule	UV λmax (Ethanol) [nm]	UV εmax (Ethanol)	UV λmax (95% Ethanol) [nm]	UV εmax (95% Ethanol)
CC(C)COC(=O)C(=Cc1ccc(Nc2nc(NCCC[Si](C)(O[Si](C)(C)C)O[Si](C)(C)C)nc(Nc3ccc(C=C(C(=O)OCC(C)C)C(=O)OCC(C)C)cc3)n2)cc1)C(=O)OCC(C)C [Example 5, 2,4-bis(diisobutyl 4′-ylaminobenzalmalonate)-6-{[1,1,1,3-tetramethyl-1-[(trimethylsilyl)oxy]disiloxanyl]propyl-3-ylamino}-s-triazine]	356.5	65,650		
2-(butyl 4′-ylaminobenzoate)-4,6-bis{[1,3,3,3-tetramethyl-1-[(trimethylsilyl)oxy]disiloxanyl]propyl-3-ylamino}-s-triazine [Example 1]	300	40,800		

Other lines, results leading:

UV λmax (Ethanol) [nm]	UV εmax (Ethanol)	UV λmax (95% Ethanol) [nm]	UV εmax (95% Ethanol)	Molecule
354	66,460			CC12CCC(C(=Cc3ccc(Nc4nc(NCCC[Si](C)(O[Si](C)(C)C)O[Si](C)(C)C)nc(Nc5ccc(C=C6C(=O)C7(C)CCC6C7(C)C)cc5)n4)cc3)C1=O)C2(C)C [Example 2, 2,4-bis(4′-ylamnobenzylidenecamphor)-6-{[1,3,3,3-tetramethyl-1-[(trimethylsilyl)oxy]disiloxanyl]propyl-3-ylamino}-s-triazine]
		310	75,510	CCCCOC(=O)c1ccc(Nc2nc(NCCC[Si](C)(O[Si](C)(C)C)O[Si](C)(C)C)nc(Nc3ccc(C(=O)OCCCC)cc3)n2)cc1 [Example 3, 2,4-bis(butyl 4′-ylaminobenzoate)-6-{[1,3,3,3-tetramethyl-1-[(trimethylsilyl)oxy]disiloxanyl]propyl-3-ylamino}-s-triazine]
324	22,000			Cc1cc(Nc2nc(NCCC[Si](C)(O[Si](C)(C)C)O[Si](C)(C)C)nc(NCCC[Si](C)(O[Si](C)(C)C)O[Si](C)(C)C)n2)c(O)c(-n2nc3ccccc3n2)c1 [Example 4, 2-(2-benzotriazol-2-yl-4-methyl-6-ylaminophenol)-4,6-bis{[1,3,3,3-tetramethyl-1-[(trimethylsilyl)oxy]disiloxanyl]propyl-3-ylamino}-s-triazine]
